Assay results taken from patent publication US10821276B2, “System and method to locally deliver therapeutic agent to inner ear” (The Trustees of Columbia University in the City of New York, priority 2012, dated 2020).
“And” between values parts separate entries of the source, which are not always exact repeats. Equal values may be shown once.

Tests used:
[1] = intact RWM, cited from earlier work
[2] = cited from earlier work; for D: diffusion coefficient
[3] = Diffusion of 1 mM Rhodamine B across RWM in static Franz diffusion cells, with and without 12.5 μm microperforation; type: in vitro ADME, guinea pig; conditions: for time to reach 10 μM: expected
Procedure: The diffusion across guinea pig RWM, with and without microperforation, was developed and tested: cochleae, sparing the RWM, were embedded in 3D-printed acrylic holders using hybrid dental composite and light cured to adapt the round window niche to 3 ml Franz diffusion cells. Perforations were created with 12.5 μm diameter needles and examined with light microscopy. Diffusion of 1 mM Rhodamine B across RWM in static diffusion cells was measured via fluorescence microscopy.
In order to carry out this analysis, diffusion of RhoB through the RWM was performed on 12 Hartley Strain Guinea Pigs in a modified diffusion cell at room temperature. Franz™ Cell-type diffusion cells (PermeGear, Inc., Hellertown, Pa.) are made of borosilicate glass and have a 5 mm orifice and a 3 ml receptor volume with flat ground joints (FIG. 30). The cell consists of three parts (FIG. 33): donor chamber, membrane, and receptor chamber.
The donor chamber was filled with 0.3 ml of 1 mM RhoB in PBS meeting the conditions for continuous infinite dosing. Donor chamber was covered with Parafilm® for the duration of the experiment. Drug application surface was determined by size of RWM.
Guinea pig RWM was embedded in an acrylic holder with dental composites (FIG. 34). The acrylic holder was designed and 3D printed (Objet 24, Stratasys, MN) to allow for adaptation of the round window niche containing RWM to the diffusion cell. Dental composites (Dentsply, Milford, Del.) included primer (Prime & Bond® NT™) and a urethane modified Bis-GMA resin (TPH Spectra™) which were light cured at 20 s intervals with a 470 nm light emitting diode greater than 500 mW/cm^2. The diffusion cell was assembled with two custom expanded Polytetraflurane (PTFE) gaskets, 1.5 mm thick, to prevent leakage from the donor or receptor chambers at the diffusion cell/membrane interface. The acrylic holder was tested for reactivity with RhoB and was inert for >48 hours. The RWM was equilibrated in PBS solution for 30 minutes prior to application of RhoB. Membranes were embedded and equilibrated within 2 hours of euthanasia.
Microperforations were introduced in the RWM with manual application of a minutien insect pin (Size 000, 12.5 μm diameter tip, 250 μm diameter shaft) under a binocular microscope. All membranes were imaged before and after diffusion study using bright field, phase contrast or fluorescent microscopy and Z-stacking. Imaging was used to confirm the presence or absence of membrane perforation. 60 images at […] intervals were taken and compiled to create one image. ImageJ (Rasband, W. S., Image J, U.S. National Institutes of Health, Bethesda, Md.) was used to calculate the size of the membrane and, if present, perforation.
The receptor chamber was filled with 3 ml of PBS and continuously stirred at 650 rpm with a cylindrical Teflon® magnetic stirbar to allow rapid mixing of contents without development of a vortex. Sampling port allowed for extraction of fluid samples at various time points to monitor progression of diffusion. The set up and sampling conditions were validated for consistency in the following categories: 1) diffusion cell dimensions, 2) stir bar speed, and 3) sampling frequency, to increase the precision of results across experiments^23.
Sampling of the receiver chamber was made at 12 predetermined times over 24 hours and analyzed with fluorescent microscopy. At each time point 90 μL was removed using a stretched syringe from the center of the receptor chamber and the volume was replaced with 90 μL of fresh PBS. These diffusion experiments are considered static as solution from the receptor chamber is renewed by removal of a set quantity (90 μL) at sampling times and replacement of this volume with fresh medium. The removed 90 μL was then diluted with 360 μL PBS to reduce the effects of evaporation and maintain concentrations within the acceptable detection range of the microscope. The samples were placed on a tilt table to enhance mixing after dilution. […]

[4] = Permeability of one pore estimated from diffusion coefficient and membrane thickness (P=D/h); 1% area perforation improvement; conditions: for Ppore: D/h, membrane thickness 10 μm, guinea pig
Excerpt: From Fick's first law, diffusion is described by J=−D∇ϕ (1) where J is diffusion flux in mol/m^2*s, D is the diffusion coefficient in m^2/s, and ϕ is the concentration in mol/l. Then from a one-dimensional simplification of the pore
[formula] This can be further simplified with the gradient is uniform across the pore to obtain
[formula] where x is the axis through the pore in m, cx is the concentration at both ends in mol/l, and h is the RWM thickness in m. Then from the definition of flux
[formula] the permeability of the membrane is Flux=−PA(c1−c0) (5) where P=D/h is the permeability in m/s.
Thus the permeability of one pore can be estimated from the diffusion coefficient and the thickness of the membrane (10 μm, guinea pig).

[5] = Diffusion of 500 μM rhodamine B across RWM in Franz Cell, with and without manual perforation (10 μm / 100 μm needle); type: in vitro ADME, guinea pig
Procedure: In another embodiment, a model for measuring diffusion across a guinea pig RWM, was developed and tested. The model is applicable for analysis of the RWM both with and without microperforations. Semicircular canals were removed from the pigs and RWM exposed prior to perforation. In the exemplary embodiment, the cochlea, sparing the RWM, was embedded in a 3D-printed acrylic holder using hybrid dental composite and light cured to adapt the round window niche to a 3 ml Franz™ Cell. The Franz™ Cell is a widely recognized standardized method for studying transdermal drug delivery. Microperforations were created with a 10 μm diameter needle (as shown in FIG. 32) and examined with fluorescent light microscopy (FSX-100, as shown in FIG. 31) as a function of time exposure.
In the exemplary embodiment show in FIGS. 33-34, a Franz Cell was customized in accordance with the present disclosure to include an adapter to allow analysis of a very small membrane in the Franz Cell. The adaptor depicted in FIGS. 33B and 34 was manufactured with a 3-dimensional printer, though alternative manufacturing techniques (and suitable materials) are contemplated to be within the scope of the disclosure. The adaptor includes a downwardly extending protrusion or lip (see reference numerals “A” and “B” in FIG. 33) which are configured to engage the Receptor portion of the Franz Cell.
Similarly, FIGS. 37A-C illustrate various Z-stacked perforation images which were compiled from 60 images taken at 5 μm intervals of RWM with perforation: A) bright field microscopy; B) bright field microscopy post diffusion with RhoB; C) Fluorescent microscopy
Manual perforations made with 10 μm needle tip produce an elliptical hole (see arrow in FIG. 38) with axes 30 μm (26-34)×47 μm (44-50). In one example, a manual perforation with 100 μm needle tip created an elliptical tear in the membrane Measuring […]×460 μm, as shown in FIG. 38 (in which the dot “D” indicates tip size).

C[C@@H]1C[C@H]2[C@@H]3CCC4=CC(=O)C=C[C@]4(C)[C@@]3(F)[C@@H](O)C[C@]2(C)[C@@]1(O)C(=O)CO [Dexamethasone]
PRWM [1]: 5.0~35.0 × 10^−8 m/s

CCN(CC)c1ccc2c(-c3ccccc3C(=O)O)c3ccc(=[N+](CC)CC)cc-3oc2c1.[Cl-] [Rhodamine B]
Diffusion Coefficient in water at 25° C. (298 K) [2]: 4.5 ± 0.4 10^−6 cm^2s^−1 and 4.27 ± 0.04 10^−6 cm^2s^−1 | Permeability KP RWM [3]: 0.51 ± 0.41 10^−8 ms^−1 | permeability across the perforation itself [3]: 8.3±2.2×10^−5 m/s | permeability across the perforation relative to intact membrane [3]: 16,000 times | permeability coefficient of the RWM with microperforations [3]: 18.1±6.1×10^−8 m/s | time to reach 10 μM ([3]; 3×3 array of perforations): 30 min | time to diffuse 10 μM across the RWM ([3]; intact membrane): 7 days | increase in permeability / enhancement in diffusion with microperforation vs intact RWM ([3]; single 12.5 μm tip microperforation, 0.22% of membrane): 35 times | time to diffuse 10 μM across the RWM ([3]; single microperforation of approximately 2.5×10^−3 mm^2): under 5 hours | time to reach 10 μM ([3]; three perforations): 90 min | predicted value of pore permeability based on the diffusion coefficient ([4]; not told): 4×10^−5 m/s | enhancement in diffusion ([5]; 10 μm needle, 30 × 47 μm perforation): 160 × | enhancement in diffusion ([5]; 100 μm needle, 240 × 460 μm elliptical perforation): 3500 × | Microperforated KP ([5]; guinea pig): 3.21×10^−6 m/s | time required to reach 250 μM ([5]; membranes with a small microperforation): 8.5 days | time required to reach 250 μM ([5]; unperforated membrane, 250 μM = ½ applied concentration): 3.7 years

C[N+](C)(C)c1ccccc1 [TMPA]
D [2]: 1.01 × 10^−9 m2/s | Ppore [4]: 1.01 × 10^−4 m/s | permeability of the RWM ([1]; guinea pig model): 1.9×10^−8 m/s | PRWM [1]: 1.9 × 10^−8 m/s

Gentamicin
D [2]: 6.82 × 10^−10 m2/s | Diffusion Coefficient in water at 25° C. (298 K) [2]: 6.82 10^−6 cm^2s^−1 | Ppore [4]: 6.82 × 10^−5 m/s | PRWM [1]: 3.5 ± 4.6 × 10^−8 m/s
